Measured values from PubChem BioAssay AID248 (DTP/NCI, 2004).
Values joined by “and” are separate entries in the source; they are usually repeats but may differ in a detail not shown here. Equal entries are not always repeated. Toxic doses and inconclusive results are not listed. Cut-off read from the data, not from the text of the source: active = T/C of 150% or more; inactive = T/C below 125%. Square brackets hold non-standard residues; d marks the D form. Peptide text beside a SMILES is read from it. * marks the point of attachment. ξ: configuration not given here. Octanoyl = CCCCCCCC(=O)*; OBn = c1ccc(CO*)cc1; ξP = O=C(O)C1CCCN1

System: L1210 leukemia ip in BDF1 mice, survival T/C
Experiment: NCI In Vivo Anticancer Drug Screen. Data for tumor model L1210 Leukemia (intraperitoneal) in B6D2F1 (BDF1) mice
Settings: endpoint: mean survival time, higher = longer survival
Outline: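 Mice bearing the transplanted tumor received compound or vehicle. Survival of the treated group was divided by that of the vehicle-treated control group to give the ratio.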

[1] = dose: 100.0 mg/kg/injection, schedule: Q04DX002 (ip), vehicle: Klucel (hydroxypropylcellulose) (HPC)
[2] = dose: 100.0 mg/kg/injection, schedule: Q04DX003 (ip), vehicle: saline with Tween-80
[3] = dose: 200.0 mg/kg/injection, schedule: Q04DX003 (ip), vehicle: saline with Tween-80
[4] = dose: 100.0 mg/kg/injection, schedule: Q01DX009 (ip), vehicle: saline with Tween-80
[5] = dose: 200.0 mg/kg/injection, schedule: Q01DX009 (ip), vehicle: saline with Tween-80
[6] = dose: 400.0 mg/kg/injection, schedule: Q04DX003 (ip), vehicle: saline with Tween-80
[7] = dose: 400.0 mg/kg/injection, schedule: Q01DX009 (ip), vehicle: saline with Tween-80
[8] = dose: 100.0 mg/kg/injection, schedule: Q01DX009 (ip), vehicle: Klucel (hydroxypropylcellulose) (HPC)
[9] = dose: 200.0 mg/kg/injection, schedule: Q01DX009 (ip), vehicle: Klucel (hydroxypropylcellulose) (HPC)
[10] = dose: 400.0 mg/kg/injection, schedule: Q01DX009 (ip), vehicle: Klucel (hydroxypropylcellulose) (HPC)

Measured: T/C

C[CH2][Pb]([CH2]C)([CH2]C)[O]C(=O)C(Cl)(Cl)Cl
inactive: dose: 0.39 mg/kg/injection, schedule: Q01DX009 (ip), vehicle: other 101 % of control and 105 % of control | dose: 0.78 mg/kg/injection, schedule: Q01DX009 (ip), vehicle: other 102 % of control and 90 % of control | dose: 1.5 mg/kg/injection, schedule: Q01DX001 (ip), vehicle: other 113 % of control | dose: 1.5 mg/kg/injection, schedule: Q04DX002 (ip), vehicle: other 100 % of control | dose: 1.56 mg/kg/injection, schedule: Q01DX009 (ip), vehicle: other 93 % of control | dose: 3.0 mg/kg/injection, schedule: Q01DX001 (ip), vehicle: other 103 % of control | dose: 3.0 mg/kg/injection, schedule: Q04DX002 (ip), vehicle: other 100 % of control | dose: 6.0 mg/kg/injection, schedule: Q01DX001 (ip), vehicle: other 107 % of control | dose: 6.0 mg/kg/injection, schedule: Q04DX002 (ip), vehicle: other 109 % of control | dose: 6.25 mg/kg/injection, schedule: Q04DX003 (ip), vehicle: other 92 % of control | dose: 12.0 mg/kg/injection, schedule: Q04DX002 (ip), vehicle: other 101 % of control | dose: 12.5 mg/kg/injection, schedule: Q01DX001 (ip), vehicle: other 89 % of control | dose: 12.5 mg/kg/injection, schedule: Q04DX003 (ip), vehicle: other 97 % of control | dose: 25.0 mg/kg/injection, schedule: Q01DX001 (ip), vehicle: other 100 % of control | dose: 25.0 mg/kg/injection, schedule: Q04DX002 (ip), vehicle: carboxymethylcellulose (CMC) 94 % of control and 102 % of control | dose: 25.0 mg/kg/injection, schedule: Q04DX003 (ip), vehicle: other 87 % of control

C=CS(=O)(=O)CCCCCCC
inactive: dose: 75.0 mg/kg/injection, schedule: Q01DX001 (ip), vehicle: saline 96 % of control | dose: 150.0 mg/kg/injection, schedule: Q01DX001 (ip), vehicle: saline 94 % of control | dose: 300.0 mg/kg/injection, schedule: Q01DX001 (ip), vehicle: saline 97 % of control

CCC/C=C(/C=O)CC
inactive: dose: 100.0 mg/kg/injection, schedule: Q01DX001 (ip), vehicle: saline with Tween-80 100 % of control | dose: 200.0 mg/kg/injection, schedule: Q01DX001 (ip), vehicle: saline with Tween-80 96 % of control | dose: 400.0 mg/kg/injection, schedule: Q01DX001 (ip), vehicle: saline with Tween-80 96 % of control

CC(C)=CBr
inactive: dose: 50.0 mg/kg/injection, schedule: Q01DX009 (ip), vehicle: acetone 96 % of control | dose: 100.0 mg/kg/injection, schedule: Q01DX009 (ip), vehicle: acetone 89 % of control | dose: 200.0 mg/kg/injection, schedule: Q01DX009 (ip), vehicle: acetone 103 % of control

CCCCCCCC(=O)N1CCCC1C(=O)NCC(=O)NCC(=O)OCc1ccccc1 (stereo not drawn) (Octanoyl-[ξP]-Gly-Gly-OBn)
inactive: [1] 94 % of control | dose: 200.0 mg/kg/injection, schedule: Q04DX002 (ip), vehicle: Klucel (hydroxypropylcellulose) (HPC) 86 % of control | dose: 400.0 mg/kg/injection, schedule: Q04DX002 (ip), vehicle: Klucel (hydroxypropylcellulose) (HPC) 105 % of control

CC(C)C(C#N)(CCCCN1CCCCC1)c1cccc2ccccc12 (stereo unspecified)
inactive: [2] 97 % of control | [3] 93 % of control

Nc1c(-c2ccccc2)nnn1-c1ccc2ccccc2c1
inactive: dose: 100.0 mg/kg/injection, schedule: Q04DX002 (ip), vehicle: gum acacia 101 % of control | dose: 200.0 mg/kg/injection, schedule: Q04DX002 (ip), vehicle: gum acacia 96 % of control | dose: 400.0 mg/kg/injection, schedule: Q04DX002 (ip), vehicle: gum acacia 96 % of control

CC1C(C)(C)P(=O)(c2ccccc2)C1(C)C (stereo unspecified)
inactive: dose: 12.5 mg/kg/injection, schedule: Q04DX003 (ip), vehicle: saline 96 % of control | dose: 25.0 mg/kg/injection, schedule: Q04DX003 (ip), vehicle: saline 96 % of control | dose: 50.0 mg/kg/injection, schedule: Q04DX003 (ip), vehicle: saline 105 % of control

O=c1[nH]c(=O)c2ccccc2o1
inactive: dose: 2.5 mg/kg/injection, schedule: Q04DX003 (ip), vehicle: saline 100 % of control | dose: 5.0 mg/kg/injection, schedule: Q04DX003 (ip), vehicle: saline 105 % of control | dose: 10.0 mg/kg/injection, schedule: Q04DX003 (ip), vehicle: saline 100 % of control | [4] 105 % of control

CC(C)=C(C=O)CCC(C)C
inactive: [4] 93 % of control | [2] 95 % of control | [5] 88 % of control | [3] 93 % of control | [6] 97 % of control

Nc1nc(N)[n+]([O-])c(N)c1NCO
inactive: dose: 88.0 mg/kg/injection, schedule: Q01DX001 (ip), vehicle: other 101 % of control | dose: 100.0 mg/kg/injection, schedule: Q01DX001 (ip), vehicle: other 97 % of control | dose: 133.0 mg/kg/injection, schedule: Q01DX001 (ip), vehicle: other 103 % of control | dose: 300.0 mg/kg/injection, schedule: Q01DX001 (ip), vehicle: other 103 % of control | dose: 400.0 mg/kg/injection, schedule: Q01DX001 (ip), vehicle: other 94 % of control

Cc1ccc(S(=O)(=O)N(C)C)cc1N
inactive: dose: 50.0 mg/kg/injection, schedule: Q01DX009 (ip), vehicle: saline with Tween-80 105 % of control | [4] 98 % of control | [2] 107 % of control | [5] 96 % of control | [3] 97 % of control | [6] 102 % of control

CC(C)(C)NC=O
inactive: dose: 50.0 mg/kg/injection, schedule: Q01DX009 (ip), vehicle: saline 98 % of control | dose: 75.0 mg/kg/injection, schedule: Q01DX009 (ip), vehicle: saline 93 % of control | dose: 75.0 mg/kg/injection, schedule: Q04DX003 (ip), vehicle: saline 106 % of control | dose: 150.0 mg/kg/injection, schedule: Q04DX003 (ip), vehicle: saline 96 % of control

COC(=O)C1CN(C)CCC1=O (stereo unspecified)
inactive: dose: 100.0 mg/kg/injection, schedule: Q01DX001 (ip), vehicle: saline 97 % of control | dose: 200.0 mg/kg/injection, schedule: Q01DX001 (ip), vehicle: saline 106 % of control | dose: 400.0 mg/kg/injection, schedule: Q01DX001 (ip), vehicle: saline 95 % of control

O=S(=O)(Nc1ccc(O)c(Cl)c1)c1ccccc1
inactive: [4] 100 % of control | [5] 103 % of control | [7] 95 % of control

C=CS(=O)(=O)c1ccc(C)cc1
inactive: dose: 25.0 mg/kg/injection, schedule: Q04DX002 (ip), vehicle: Klucel (hydroxypropylcellulose) (HPC) 104 % of control | dose: 50.0 mg/kg/injection, schedule: Q04DX002 (ip), vehicle: Klucel (hydroxypropylcellulose) (HPC) 110 % of control | [1] 96 % of control and 104 % of control

CC(=O)CC(=O)Nc1cccc(Cl)c1C
inactive: [8] 89 % of control | [9] 89 % of control

O=C(Nc1cccc(Cl)c1Cl)N(Cc1ccccc1)Cc1ccccc1
inactive: [8] 108 % of control | [9] 97 % of control | [10] 101 % of control

CC12OC3(C)C4C(=O)OC1C1(C)OC4(C)C3C(=O)OC21
inactive: [4] 102 % of control | [5] 101 % of control | [7] 98 % of control

O=[N+]([O-])CC(O)C(O)C(O)C(O)CO (stereo unspecified)
inactive: dose: 100.0 mg/kg/injection, schedule: Q04DX003 (ip), vehicle: saline 102 % of control | dose: 200.0 mg/kg/injection, schedule: Q04DX003 (ip), vehicle: saline 102 % of control | dose: 400.0 mg/kg/injection, schedule: Q04DX003 (ip), vehicle: saline 102 % of control

CN(C)C(=O)Sc1cc(Cl)c(Cl)cc1Cl
inactive: dose: 87.0 mg/kg/injection, schedule: Q01DX001 (ip), vehicle: Klucel (hydroxypropylcellulose) (HPC) 92 % of control | dose: 175.0 mg/kg/injection, schedule: Q01DX001 (ip), vehicle: Klucel (hydroxypropylcellulose) (HPC) 92 % of control | dose: 350.0 mg/kg/injection, schedule: Q01DX001 (ip), vehicle: Klucel (hydroxypropylcellulose) (HPC) 94 % of control

O=[N+]([O-])c1ccc(S(=O)(=O)C2CCCCC2Cl)cc1 (stereo unspecified)
inactive: [8] 88 % of control | [9] 91 % of control | [10] 90 % of control
